Measured values reported in patent US4940723A, “Use of bis-(5-amidino-2-benzimidazolyl) methane (BABIM) to treat arthritis” (University of North Carolina, Chapel Hill, priority 1988, dated 1990).
“And” between values parts separate entries of the source, which are not always exact repeats. Equal entries are not always repeated.

Legend:
PG-APS-induced arthritis [1] = test: Clinical scoring of PG-APS-induced arthritis; format: in vivo, Lewis rats
Experimental: (§1) Inbred female Lewis rats were purchased from Charles River Laboratories, Inc. Their mean body weight at the start of the study was 145 g. Arthritis was induced by a single intraperitoneal injection of the 10S fraction of purified cell wall material in PBS. The volume was 0.5 ml, and the dose of PG-APS was equivalent to 15 μg of rhamnose content per gram of body weight. For the administration of BABIM into the tail vein the animals were lightly anesthetized with ether. The inhibitor was contained in 0.1 ml of saline. Control animals were injected in the same way, but received saline only. All rats had free access to food and water. Nineteen days after the initiation of arthritis, they were killed with an overdose of ether.
Severity of the arthritis was judged daily for the first 11 days after PG-APS injection and every one to three days. Involvement of each extremity was quantified on a scale from 0-4, yielding a maximum combined score of 16. Grading was restricted to the wrist and ankle joints and all joints distal from there. The individual score was based on the number of joints involved, the degree of cutaneous erythema, the extent of the swelling of the skin and periarticular soft tissue, and the enlargement and deformities of the joints.
The basic design of the experiments was as follows. Arthritis was induced in two groups of rats by the intraperitoneal application of PG-APS fragments. One group of animals received repeated injections of BABIM dissolved in saline, while the other group received saline only. The inhibitor dose of 10 mg/kg body weight was selected because it has been found effective in preliminary studies.
(§2) The dosing with inhibitor was begun two days before the induction of arthritis and was continued on a daily basis through day 6. From

PG-APS-induced arthritis [2] = test: Histological grading of the severity of PG-APS-induced arthritis (hind leg); format: in vivo, Lewis rats
Experimental: as §1
(§3) After the rats were killed, autopsies were performed. The liver, spleen, kidneys, adrenal glands, and the skinned distal hind legs were saved for further examination. The livers were weighed individually, and a sample of each was frozen and held for ELISA of PG-APS fragments. All other tissues were fixed in phosphate-buffered formalin solution. The bones were decalcified in formic acid-sodium citrate solution. Sections were stained with hematoxylin and eosin.
For this evaluation the hind legs were used because they were more severely involved than the front legs. Both hind legs were studied, but as the disease processes were always symmetrical only one leg was scored. Included in the histologic sections were the distal tibia with the ankle joint, the tarsal bones, and the metatarsals. These were ranked on a scale of 0-4, based on the extent of bone marrow hyperplasia, the density of neutrophilic infiltration in bone and soft tissues, the degree of destruction of trabecular and cortical bone, and the magnitude of the synovial and periosteal proliferative response.
as §2

[3] = tested on: PG-APS induced granulomatous hepatitis; test: Liver weight and hepatic granulomata (PG-APS-induced granulomatous hepatitis); format: in vivo, Lewis rats
Experimental: as §1, §3, §2

PG-APS deposits in liver = test: Quantification of PG-APS deposits in liver tissue (ELISA); format: in vivo, Lewis rats
Experimental: Measurements were based on a solid-phase enzyme-linked immunosorbent assay (ELISA) as known in the art. Briefly, microtiter plates were charged with group A cell wall antibodies and non-specific binding sites were blocked with human albumin. The coated walls were interacted with the tissue samples, and retention of PG-APS was determined from phosphate hydrolysis following sequential addition of affinity-purified biotinylated cell wall antibodies, avidin-alkaline phosphatase complexes and enzyme substrate. Standard curves were prepared with various amounts of the 10S PG-APS material and were used to correlate enzyme activity with levels of tissue deposits.
as §1, with “of ether. […]” for “of ether.”

granulomatous splenitis = test: Splenic granulomatous involvement (PG-APS-induced granulomatous splenitis); format: in vivo, Lewis rats
Experimental: as §1, §3, §2
*Disease was scored on a scale of 0-4, based on the percentage of
granulomatous replacement of splenic parenchyma, where 0 = none, 1 = <25%

[4] = Toxicity observation (physical, behavioral, organ histology) in BABIM-treated rats; format: in vivo, Lewis rats
Experimental: as §3, §2

[5] = Dissolution in isotonic saline; format: physicochemical
Experimental: BABIM was synthesized according to established procedures. Purity of the compound was ascertained by infrared and nuclear magnetic resonance spectroscopy, thin-layer chromatography and elemental analysis. […] Solutions were prepared fresh on the day they were used.

trypsin = conditions: in words; cited from earlier work
plasmin = conditions: in words; cited from earlier work
urokinase = conditions: in words; cited from earlier work
Clr = conditions: in words; cited from earlier work
Cls = conditions: in words; cited from earlier work
hemolytic complement = conditions: in words; cited from earlier work
adjuvant arthritis = conditions: Sprague-Dawley rats; cited from earlier work

Structure (SMILES): N=C(N)c1ccc2nc(Cc3nc4ccc(C(=N)N)cc4[nH]3)[nH]c2c1 [BABIM, bis-(5-amidino-2-benzimidazolyl) methane]
- Effect of 10 mg/kg dose in preliminary studies (PG-APS-induced arthritis [1]; 10 mg/kg body weight, preliminary studies): effective
- Suppression of clinical signs of arthritis (PG-APS-induced arthritis [1]; FIG. 1, initial response and recurrence, 10 mg/kg): suppressed the clinical signs of arthritis dramatically
- Relative suppression of arthritis versus hepatic and splenic granulomatous response (PG-APS-induced arthritis [1]; arthritis component compared with granulomata): more effectively dealt with
- Clinical score (individual animal) (PG-APS-induced arthritis [1]; individual BABIM-treated rats, final day (day 19), 10 mg/kg i.v. from day -2, scale 0-4 per extremity, maximum combined 16, 10 mg/kg): 0 and 1 and 2
- Treated rats completely free of arthritis at the initial peak (PG-APS-induced arthritis [1]; initial peak): 3 of the 7 treated rats
- Clinical score, Mean ± SD (PG-APS-induced arthritis [1]; n=7, final day of experiment, P < 0.0001 versus vehicle (6.79 ± 2.86)): 0.43 ± 0.79
- Treated rats without symptoms during the recurrence (PG-APS-induced arthritis [1]; recurrence): five
- Blockade of recurrence of the disease (PG-APS-induced arthritis [1]; versus primary response): blocked as completely as the primary response
- Bone marrow composition in calcaneus (PG-APS-induced arthritis [2]; FIG. 2B, day 19): Predominantly fatty marrow
- Inflammation of synovial recess of ankle joint (PG-APS-induced arthritis [2]; FIG. 4B, day 19): inflammation is absent
- Appearance of joints and bone marrow spaces (PG-APS-induced arthritis [2]; cell wall-injected and BABIM-treated Lewis rats): pristine appearance
- BABIM-treated animals with complete absence of histological joint/bone abnormalities (PG-APS-induced arthritis [2]; day 19, FIGS. 2B, 3B, 4B): five
- Histologic score (individual animal) (PG-APS-induced arthritis [2]; individual BABIM-treated rats, day 19, scale 0-4, 10 mg/kg i.v., 10 mg/kg): 0 and 1.5 and 1
- Histologic score, Mean ± SD (PG-APS-induced arthritis [2]; n=7, day 19, P < 0.0001 versus vehicle (2.81 ± 0.46)): 0.36 ± 0.63
- Joint changes in the two BABIM-treated animals that developed joint disease (PG-APS-induced arthritis [2]; versus untreated rats): on a much smaller scale
- Reduction in the number of hepatic granulomata ([3]; 0.5 cm^2 liver sections, versus untreated): two-thirds
- Granulomata, No. per section, Mean ± SD ([3]; liver, 0.5 cm^2 sections, n=7, P < 0.005 versus vehicle (81.8 ± 34.5)): 25.6 ± 26.3
- Percentage of centrally necrotic lesions ([3]; liver, both groups): approximately 50%
- Granulomata, % with necrosis ([3]; liver, n=7, vehicle 56): 43%
- Weight of Liver, Mean ± SD ([3]; n=7, day 19, P < 0.002 versus vehicle (18.5 ± 3.8)): 11.0 ± 3.5 gm
- Size and makeup of hepatic granulomata ([3]; versus untreated animals): same size and makeup
- PG-APS deposits, Mean ± SD (PG-APS deposits in liver; liver, n=7, vehicle 0.226 ± 0.072): 0.237 ± 0.055 mg
- Total amounts of PG-APS fragments deposited in liver (PG-APS deposits in liver; versus untreated animals): nearly the same
- Inhibitor-treated animals with granulomatous inflammation in the spleen (granulomatous splenitis; all untreated rats affected): three
- Splenic disease score, Mean ± SD (granulomatous splenitis; n=7, scale 0-4, not significantly different from vehicle 2.63 ± 1.3 (P > 0.2)): 1.71 ± 1.5
- BABIM recipients rated the highest splenic grade (score of 4) (granulomatous splenitis; rat, in vivo): three
- BABIM recipients with no splenic disease (granulomatous splenitis; rat, in vivo): four
- Physical or behavioral abnormalities caused by the drug ([4]; 10 mg/kg, repeated i.v. injections): None of the recipients of BABIM showed any physical or behavioral abnormalities
- BABIM related toxicity, histological examination ([4]; liver, kidney, adrenal glands, and spleen): absence of BABIM related toxicity
- Solubility in isotonic saline [5]: easily dissolved
- Trypsin inhibition (trypsin): potent inhibitor
- Plasmin inhibition (plasmin): potent inhibitor
- Urokinase inhibition (urokinase): potent inhibitor
- Inhibition in assays of Clr (Clr): only weakly inhibitory
- Inhibition in assays of Cls (Cls): only weakly inhibitory
- Inhibition in hemolytic complement tests (hemolytic complement): only weakly inhibitory

Structure (SMILES): N=C(N)c1ccc2cc(OC(=O)c3ccc(N=C(N)N)cc3)ccc2c1 [FUT-175]
- Influence on adjuvant arthritis (adjuvant arthritis): beneficial influence
